Measurements as given in US10624912B2, “Spirocyclic Pyridotriazine Derivatives useful as HIV integrase inhibitors” (priority 2015, dated 2020).
Like-named read-outs stand apart in the source and are kept apart here.

System: HIV-1
Assay: HIV-1 infection assay (antiviral potency, MT4-GFP reporter cells)
Assay type: cell-based
Method: HIV-1 replication was monitored using MT4-gag-GFP clone D3 (hereafter designate MT4-GFP), which are MT-4 cells modified to harbor a GFP reporter gene, the expression of which is dependent on the HIV-1 expressed proteins tat and rev. Productive infection of an MT4-GFP cell with HIV-1 results in GFP expression approximately 24 h post-infection.
MT4-GFP cells were maintained at 37° C./5% CO2/90% relative humidity in RPMI 1640 supplemented with 10% fetal bovine serum, 100 U/ml penicillin/streptomycin, and 400 μg/ml G418 to maintain the reporter gene. For infections, MT4-GFP cells were placed in the same medium lacking G418 and infected overnight with H9IIIB or NL4-3 virus at an approximate multiplicity of infection of 0.01 in the same incubation conditions. Cells were then washed and resuspended in either RPMI 1640 containing no serum at 1.6×10^5 cells/mL (serum free conditions), 10% normal human serum at 1.6×10^5 cells/mL (10% NHS conditions) or in 100% normal human serum at 2×10^5 cells/mL (100% NHS conditions). Compound plates were prepared by dispensing compounds taken up in DMSO into wells of 384 well poly D lysine-coated plates (0.2 μl/well) using an ECHO acoustic dispenser. Each compound was tested in a 10 point serial 3-fold dilution (typical final concentrations: 4.2 μM-0.21 nM). Controls included no inhibitor (DMSO only) and a combination of three antiviral agents (efavirenz, indinavir, and the integrase strand transfer inhibitor L-002254051 at final concentrations of 4 μM each). Cells were added (50 μL/well) to compound plates and the infected cells were maintained at 37° C./5% CO2/90% relative humidity.
Infected cells were quantified at two time points, ˜48 h and ˜72 h post-infection, by counting the number of green cells in each well using an Acumen eX3 scanner. The increase in the number of green cells over ˜24 h period gives the reproductive ratio, R0, which is typically 5-15 and has been shown experimentally to be in logarithmic phase (data not shown). Inhibition of R0 is calculated for each well, and IC50 value was determined using non-linear 4-parameter curve fitting.

[1] = Human immunodeficiency virus 1, NL43, MT4-GFP cells infected with H9IIIB or NL4-3 virus, 100% normal human serum, inhibition of reproductive ratio R0, read-out: VIKING IP (nM) with 100% NHS
[2] = Human immunodeficiency virus 1, NL43, MT4-GFP cells infected with H9IIIB or NL4-3 virus, serum free conditions (0% NHS), inhibition of reproductive ratio R0, read-out: VIKING IP (nM) with 0% NHS
[3] = Human immunodeficiency virus 1, NL43, read-out: VIKING IP (nM) with 0% NHS

| SMILES | IC50 [1] | IC50 [2] | IC50 [3] |
| --- | --- | --- | --- |
| CC(C)OC(=O)OCOP(=O)(CCCN1C(=O)c2c(O)c(=O)c(C(=O)NCc3ccc(F)cc3F)cn2N(CCP(=O)(OCOC(=O)OC(C)C)OCOC(=O)OC(C)C)C12CCOC2)OCOC(=O)OC(C)C (racemic) [Compound 49] | 8.8 nM | 0.3 nM | – |
| CCCOP(=O)(CCN1n2cc(C(=O)NCc3ccc(F)cc3F)c(=O)c(O)c2C(=O)N(C)[C@]12CCOC2)OCC (single isomer, unassigned) [Compound 6] | 45.9 nM | 2 nM | – |
| CN1C(=O)c2c(O)c(=O)c(C(=O)NCc3ccc(F)cc3F)cn2N(CCP(=O)(O)O)[C@]12CCOC2 (single isomer, unassigned) [Compound 9] | 961 nM | 23.3 nM | – |
| CN1C(=O)c2c(O)c(=O)c(C(=O)NCc3ccc(F)cc3F)cn2N(CCP(=O)(O)O)[C@@]12CCOC2 (single isomer, unassigned) [Compound 10] | 449 nM | 14.4 nM | – |
| CCOP(=O)(CCN1C(=O)c2c(O)c(=O)c(C(=O)NCc3ccc(F)cc3F)cn2N(C)C12CCOC2)OCC (single isomer, unassigned) [Compound 45] | 118 nM | 2.9 nM | – |
| CN1n2cc(C(=O)NCc3ccc(F)cc3F)c(=O)c(O)c2C(=O)N(CCP(=O)(O)O)C12CCOC2 (single isomer, unassigned) [Compound 46] | 775 nM | 92.1 nM | – |
| CC(C)OC(=O)OCOP(=O)(CCN1C(=O)c2c(O)c(=O)c(C(=O)NCc3ccc(F)cc3F)cn2N(C)C12CCOC2)OCOC(=O)OC(C)C (single isomer, unassigned) [Compound 47] | 106 nM | 2.9 nM | – |
| CC(C)OC(=O)[C@H](C)NP(=O)(CCN1C(=O)c2c(O)c(=O)c(C(=O)NCc3ccc(F)cc3F)cn2N(C)C12CCOC2)Oc1ccccc1 (single isomer, unassigned) [Compound 48] | – | – | 23.8 nM |
| CC(C)OC(=O)OCOP(=O)(CCN1n2cc(C(=O)NCc3ccc(F)cc3F)c(=O)c(O)c2C(=O)N(C)[C@@]12CCOC2)OCOC(=O)OC(C)C [Compound 11] | 1.5 nM | 0.05 nM | – |
| CC(C)OC(=O)OCOP(=O)(O)CCN1n2cc(C(=O)NCc3ccc(F)cc3F)c(=O)c(O)c2C(=O)N(C)[C@@]12CCOC2 [Compound 12] | 156 nM | 0.8 nM | – |
| CC(C)OC(=O)OCOP(=O)(CCN1n2cc(C(=O)NCc3ccc(F)cc3F)c(=O)c(O)c2C(=O)N(C)[C@]12CCOC2)OCOC(=O)OC(C)C [Compound 13] | 1.8 nM | 0.04 nM | – |
| CC(C)OC(=O)OCOP(=O)(O)CCN1n2cc(C(=O)NCc3ccc(F)cc3F)c(=O)c(O)c2C(=O)N(C)[C@]12CCOC2 [Compound 14] | 89 nM | 1.6 nM | – |
| CC(C)OC(=O)[C@H](C)NP(=O)(CCN1n2cc(C(=O)NCc3ccc(F)cc3F)c(=O)c(O)c2C(=O)N(C)[C@@]12CCOC2)Oc1ccccc1 (some centres unmarked) [Compound 15] | – | – | 3.9 nM |
| CC(C)OC(=O)[C@H](C)NP(=O)(CCN1n2cc(C(=O)NCc3ccc(F)cc3F)c(=O)c(O)c2C(=O)N(C)[C@]12CCOC2)Oc1ccccc1 (some centres unmarked) [Compound 16] | – | – | 3.7 nM |
| CCOP(=O)(CCN1C(=O)c2c(O)c(=O)c(C(=O)NCc3ccc(F)cc3F)cn2N(C)C12CCOC2)OCC (centres unmarked) [Compound 40] | 92.6 nM | 3.6 nM | – |
| CN1n2cc(C(=O)NCc3ccc(F)cc3F)c(=O)c(O)c2C(=O)N(CCP(=O)(O)O)C12CCOC2 (centres unmarked) [Compound 42] | 447 nM | 54.8 nM | – |
| CC(C)OC(=O)OCOP(=O)(CCN1C(=O)c2c(O)c(=O)c(C(=O)NCc3ccc(F)cc3F)cn2N(C)C12CCOC2)OCOC(=O)OC(C)C (centres unmarked) [Compound 43] | 43.4 nM | 1.2 nM | – |
| CC(C)OC(=O)[C@H](C)NP(=O)(CCN1C(=O)c2c(O)c(=O)c(C(=O)NCc3ccc(F)cc3F)cn2N(C)C12CCOC2)Oc1ccccc1 (some centres unmarked) [Compound 44] | – | – | 13.4 nM |
